Experimental data: publication PMC2782746 (Bioorganic & medicinal chemistry, 2008)
“Also recorded” adds a separate entry of the source.

Assays:
[1] = target: T1, G. gallus AIR carboxylase (Gallus gallus, UniProt P38024); assay: Test as alternative substrates for AIR carboxylase; format: biochemical; conditions: UV and HPLC analysis
T1 sequence (P38024 1-426): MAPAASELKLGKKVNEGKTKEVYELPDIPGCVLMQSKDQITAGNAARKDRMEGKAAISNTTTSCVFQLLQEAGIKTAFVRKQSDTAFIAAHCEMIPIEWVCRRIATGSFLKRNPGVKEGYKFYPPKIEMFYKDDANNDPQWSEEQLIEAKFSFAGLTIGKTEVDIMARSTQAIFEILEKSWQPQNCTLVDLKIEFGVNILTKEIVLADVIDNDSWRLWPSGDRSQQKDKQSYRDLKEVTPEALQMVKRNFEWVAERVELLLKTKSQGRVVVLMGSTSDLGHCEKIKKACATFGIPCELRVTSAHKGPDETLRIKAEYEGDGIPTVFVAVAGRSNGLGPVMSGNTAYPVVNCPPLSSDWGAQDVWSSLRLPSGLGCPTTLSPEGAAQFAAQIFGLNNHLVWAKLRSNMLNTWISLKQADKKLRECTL

[2] = target: T1, G. gallus AIR carboxylase; conditions: cited from earlier work
N^5-CAIR mutase = conditions: fungal and bacterial N^5-CAIR mutase; cited from earlier work
[3] = target: T1, G. gallus AIR carboxylase; assay: Inhibition of AIR carboxylase, CAIR decarboxylation assay; format: biochemical, G. gallus (chicken)

Which “alternative substrate for the enzyme” value [1] does the source give for `Nc1c(C(=O)O)nnn1[C@@H]1O[C@H](COP(=O)(O)O)[C@@H](O)[C@H]1O` [Compound 10, 5-Amino-1-(β-D-ribofuranosyl)-1,2,3-triazole-4-carboxylate 5′-phosphate] here?
Its value is “neither compound is an alternative substrate”.

Which results are given for `Nc1c([N+](=O)[O-])ncn1[C@@H]1O[C@H](COP(=O)(O)O)[C@@H](O)[C@H]1O` [Compound 3, 4-nitro-5-aminoimidazole ribonucleotide]?
fold tighter affinity for the enzyme than CAIR ([2]; compared with CAIR): 10,000 fold; type of inhibition / kinetics ([2]; listed as NAIR): slow, tight binding inhibitor; also recorded: slow, tight-binding kinetics; type of inhibition (N^5-CAIR mutase): steady-state competitive inhibitor

With `Nc1c(C(=O)O)cnn1[C@@H]1O[C@H](COP(=O)(O)O)[C@@H](O)[C@H]1O` [Compound 8, 5-Amino-1-(β-D-ribofuranosyl)pyrazole-4-carboxylate 5′-phosphate] as the compound, how does the “fold difference in binding affinity, CAIR into CAPzR” value ([3]; compared to CAIR) read?
Its value is 3 fold.

What about the “binding affinity relative to CAIR” value ([3]; in words) of the same compound?
Its value is “greater affinity than CAIR”.
